Data taken from patent US10807982B2, “Bromodomain inhibitors” (CELGENE QUANTICEL RESEARCH, INC., priority 2015, dated 2020).

Columns and labels:
[1] = system: HL-60, human proleukemia cells; test: Cell-MTS cellular proliferation assay, HL-60; assay type: cell-based; details: Homo sapiens, HL-60 cells, 168 hr incubation
Method: (§1) A colorimetric cellular proliferation assay (Cell-MTS assay) was performed to assess the ability of the heterocyclic derivative […] inhibitors disclosed herein to effect the proliferation of established cancer cell lines.
(§2) The Cell-MTS assay is a 7-day plate-based colorimetric assay which quantifies the amount of newly generated NADH in the presence or absence of test compound. The NADH level is used for the quantification of cancer cell proliferation.
(§3) Established cancer cell lines with a variety of driving mutations were obtained from American Type Culture Collection (ATCC) and routinely passaged according to ATCC protocols. For routine assay, these cells were seeded at densities which enabled ˜90% confluence after 7 days of culture. Raji, human Burkitts lymphoma cells, (cMYC) were seeded at 15,000 cells per 96-well. HL-60, human proleukemia cells, (NRAS, p16, p53, c-Myc amplified) were seeded at 5,000 cells per 96-well. NCI-H460, human non-small cell lung cancer cells. (KRAS, PIK3CA, STLK11, p16) were seeded at 3,000 cells per 96-well. 24 hr after plating, cells received an 11 point dilution of test compound with final concentration ranges from 100 µM to 2.0 nM. Cells were incubated in the presence of compound for 168 hr at 37° C., and 5% CO2. At the end of this incubation period, 80 µL of media is removed and 20 µL of CellTiter 96® AQueous Non-Radioactive Cell Proliferation Assay solution (Promega) was added. The cells were incubated until the OD490 was >0.6. IC50 values were calculated using the IDBS XLfit software package and include background subtracted OD490 values and normalization to DMSO controls. Cellular proliferation IC50 values were uploaded and archived using the Chem Biography Platform. Table 3 provides the results of the in vitro enzyme inhibition assay experiments and the in vitro cell-based assay experiments performed with the compounds disclosed herein: […]

[2] = system: NCI-H460, human non-small cell lung cancer cells; test: Cell-MTS cellular proliferation assay, NCI-H460; assay type: cell-based; details: Homo sapiens, 168 hr incubation
Method: as §1, §2, §3

[3] = system: Raji, human Burkitts lymphoma cells; test: Cell-MTS cellular proliferation assay, Raji; assay type: cell-based; details: Homo sapiens, 168 hr incubation
Method: as §1, §2, §3

[4] = molecular target: BRD4(BD1) (Homo sapiens (Human), UniProt O60885); test: In vitro enzyme inhibition assay (BRD4 AlphaScreen, H4-tetraacetyl peptide); assay type: binding; details: BRD4(BD1) 2 nM, peptide 15 nM
Method: Determination of the IC50 for the heterocyclic derivative BRD4 inhibitors disclosed herein was performed as follows. His-tagged […] was cloned, expressed and purified to homogeneity. Filipakopoulos et al., 468 Nature 1067 (2010). BRD4 binding and inhibition was assessed by monitoring the interaction of biotinylated H4-tetraacetyl peptide (AnaSpec, H4K5/8/12/16(Ac), biotin—labeled) with the target using the AlphaScreen technology (Life Technologies). In a 384-well ProxiPlate BRD4(BD1) (2 nM final) was combined with peptide (15 nM final) in 50 mM HEPES (pH 7.3), 10 mM NaCl, 0.25 mM TCEP, 0.1% (w/v) BSA, and 0.005% (w/v) Brij-35 either in the presence of DMSO (final 0.4% DMSO) or compound dilution series in DMSO. After 20 min incubation at RT, Alpha streptavidin donor beads and Nickel Chelate acceptor beads were added to a final concentration of 5 μg/mL. After 2 hr of equilibration, plates were read on an Envision instrument and the IC50 was calculated using a four parameter non-linear curve fit.
The ability of the compounds disclosed herein to inhibit BRD4 activity was quantified and the respective IC50 value was determined.

| IC50 [1] [nM] | IC50 [2] [nM] | IC50 [3] [nM] | IC50 [4] [nM] | SMILES |
| --- | --- | --- | --- | --- |
| ≤ 500 | 500 to 5000 | ≤ 500 | ≤ 500 | Cc1cc(-c2cc(NS(C)(=O)=O)c3ncn(Cc4cccc(F)c4)c3c2)cn(C)c1=O [Example 32, N-[6-(1,5-dimethyl-6-oxopyridin-3-yl)-1-[(3-fluorophenyl)methyl]benzimidazol-4-yl]methanesulfonamide] |
| ≤ 500 | 500 to 5000 | ≤ 500 | ≤ 500 | CCS(=O)(=O)Nc1cc(-c2cc(C)c(=O)n(C)c2)cc2c1ncn2Cc1cccc(F)c1 [Example 33, N-[6-(1,5-dimethyl-6-oxopyridin-3-yl)-1-[(3-fluorophenyl)methyl]benzimidazol-4-yl]ethanesulfonamide] |
| ≤ 500 | > 5000 | ≤ 500 | ≤ 500 | Cc1cc(-c2cc(NS(C)(=O)=O)c3nc(C)n(Cc4ccccc4)c3c2)cn(C)c1=O [Example 34, N-[1-benzyl-6-(1,5-dimethyl-6-oxopyridin-3-yl)-2-methylbenzimidazol-4-yl]methanesulfonamide] |
| ≤ 500 | 500 to 5000 | ≤ 500 | ≤ 500 | Cc1cc(-c2cc(NS(C)(=O)=O)c3nc(C)n(Cc4cccc(F)c4)c3c2)cn(C)c1=O [Example 35, N-[6-(1,5-dimethyl-6-oxopyridin-3-yl)-1-[(3-fluorophenyl)methyl]-2-methylbenzimidazol-4-yl]methanesulfonamide] |
| ≤ 500 | ≤ 500 | ≤ 500 | ≤ 500 | CCS(=O)(=O)Nc1cc(-c2cc(C)c(=O)n(C)c2)cc2c1nc(C)n2Cc1cccc(F)c1 [Example 36, N-[6-(1,5-dimethyl-6-oxopyridin-3-yl)-1-[(3-fluorophenyl)methyl]-2-methylbenzimidazol-4-yl]ethanesulfonamide] |
| ≤ 500 | 500 to 5000 | ≤ 500 | ≤ 500 | Cc1cc(-c2cc(NS(C)(=O)=O)c3nc(C)n(Cc4ccc(F)cc4)c3c2)cn(C)c1=O [Example 37, N-[6-(1,5-dimethyl-6-oxopyridin-3-yl)-1-[(4-fluorophenyl)methyl]-2-methylbenzimidazol-4-yl]methanesulfonamide] |
| ≤ 500 | > 5000 | ≤ 500 | ≤ 500 | COc1cc(-c2cc(NS(C)(=O)=O)c3nc(C)n(Cc4ccc(F)cc4)c3c2)cn(C)c1=O [Example 38, N-[1-[(4-fluorophenyl)methyl]-6-(5-methoxy-1-methyl-6-oxopyridin-3-yl)-2-methylbenzimidazol-4-yl]methanesulfonamide] |
| ≤ 500 | > 5000 | ≤ 500 | ≤ 500 | Cc1cc(-c2cc(NS(C)(=O)=O)c3nc(C)n(CC4CC4)c3c2)cn(C)c1=O [Example 39, N-[1-(cyclopropylmethyl)-6-(1,5-dimethyl-6-oxopyridin-3-yl)-2-methylbenzimidazol-4-yl]methanesulfonamide] |
| ≤ 500 | > 5000 | ≤ 500 | ≤ 500 | CCCCn1cnc2c(NS(=O)(=O)CC)cc(-c3cc(C)c(=O)n(C)c3)cc21 [Example 40, N-[1-butyl-6-(1,5-dimethyl-6-oxopyridin-3-yl)benzimidazol-4-yl]ethanesulfonamide] |
| ≤ 500 | 500 to 5000 | ≤ 500 | ≤ 500 | CCS(=O)(=O)Nc1cc(-c2cc(C)c(=O)n(C)c2)cc2c1ncn2Cc1ccc(F)cc1F [Example 41, N-[1-[(2,4-difluorophenyl)methyl]-6-(1,5-dimethyl-6-oxopyridin-3-yl)benzimidazol-4-yl]ethanesulfonamide] |
| ≤ 500 | 500 to 5000 | ≤ 500 | ≤ 500 | CCS(=O)(=O)Nc1cc(-c2cc(C)c(=O)n(C)c2)cc2c1cnn2Cc1ccccc1 [Example 42, N-[1-benzyl-6-(1,5-dimethyl-6-oxopyridin-3-yl)indazol-4-yl]ethanesulfonamide] |
| ≤ 500 | ≤ 500 | ≤ 500 | ≤ 500 | CCS(=O)(=O)Nc1cc(-c2cc(C)c(=O)n(C)c2)cc2c1cnn2Cc1ccc(F)cc1 [Example 43, N-[6-(1,5-dimethyl-6-oxopyridin-3-yl)-1-[(4-fluorophenyl)methyl]indazol-4-yl]ethanesulfonamide] |
| ≤ 500 | 500 to 5000 | ≤ 500 | ≤ 500 | Cc1cc(-c2cc(NS(C)(=O)=O)c3nc(C)n([C@@H](C)c4ccccc4)c3c2)cn(C)c1=O [Example 44, N-[6-(1,5-dimethyl-6-oxopyridin-3-yl)-2-methyl-1-[(1S)-(1-phenylethyl)]benzimidazol-4-yl]methanesulfonamide] |
| ≤ 500 | > 5000 | ≤ 500 | ≤ 500 | COC[C@@H](C)n1c(C)nc2c(NS(C)(=O)=O)cc(-c3cc(C)c(=O)n(C)c3)cc21 [Example 46, N-[6-(1,5-dimethyl-6-oxopyridin-3-yl)-1-[(2R)-1-methoxypropan-2-yl]-2-methylbenzimidazol-4-yl]methanesulfonamide] |
| ≤ 500 | > 5000 | ≤ 500 | ≤ 500 | CCS(=O)(=O)Nc1cc(-c2cc(C)c(=O)n(C)c2)c2oc(C3CC3)nc2c1 [Example 47, N-[2-cyclopropyl-7-(1,5-dimethyl-6-oxopyridin-3-yl)-1,3-benzoxazol-5-yl]ethanesulfonamide] |
| ≤ 500 | ≤ 500 | ≤ 500 | ≤ 500 | CCS(=O)(=O)Nc1cc(-c2cn(C)c(=O)c3ccccc23)c2oc(C3CC3)nc2c1 [Example 48, N-[2-cyclopropyl-7-(2-methyl-1-oxoisoquinolin-4-yl)-1,3-benzoxazol-5-yl]ethanesulfonamide] |
| ≤ 500 | 500 to 5000 | ≤ 500 | ≤ 500 | CCS(=O)(=O)N1CCOc2cc(OCC3CC3)c(-c3cn(C)c(=O)c4ccccc34)cc21 [Example 49, 4-[7-(cyclopropylmethoxy)-4-ethylsulfonyl-2,3-dihydro-1,4-benzoxazin-6-yl]-2-methylisoquinolin-1-one] |
| ≤ 500 | > 5000 | ≤ 500 | ≤ 500 | CCS(=O)(=O)N1CCOc2cc(OCC3CC3)c(-c3cc(C)c(=O)n(C)c3)cc21 [Example 50, 5-[7-(cyclopropylmethoxy)-4-ethylsulfonyl-2,3-dihydro-1,4-benzoxazin-6-yl]-1,3-dimethylpyridin-2-one] |
| ≤ 500 | > 5000 | 500 to 5000 | ≤ 500 | Cc1cc(-c2cc(NS(=O)(=O)C(C)C)cc3nc(C4CC4)oc23)cn(C)c1=O [Example 51, N-[2-cyclopropyl-7-(1,5-dimethyl-6-oxopyridin-3-yl)-1,3-benzoxazol-5-yl]propane-2-sulfonamide] |
| ≤ 500 | > 5000 | ≤ 500 | ≤ 500 | CCS(=O)(=O)Nc1cc(-c2cc(C)c(=O)n(C)c2)c2oc(C3CCCC3)nc2c1 [Example 52, N-[2-cyclopentyl-7-(1,5-dimethyl-6-oxopyridin-3-yl)-1,3-benzoxazol-5-yl]ethanesulfonamide] |
| ≤ 500 | > 5000 | ≤ 500 | ≤ 500 | CCS(=O)(=O)Nc1cc(-c2cn(C)c(=O)c3ccccc23)c2oc(C3CCCC3)nc2c1 [Example 53, N-[2-cyclopentyl-7-(2-methyl-1-oxoisoquinolin-4-yl)-1,3-benzoxazol-5-yl]ethanesulfonamide] |
| ≤ 500 | > 5000 | 500 to 5000 | ≤ 500 | Cc1cc(-c2cc(CS(C)(=O)=O)cc3nc(C4CC4)oc23)cn(C)c1=O [Example 56, 5-[2-cyclopropyl-5-(methylsulfonylmethyl)-1,3-benzoxazol-7-yl]-1,3-dimethylpyridin-2-one] |
